Test results: publication PMC12073189, “Synthesis and Evaluation of a Novel Zuranolone Analog with High GABAA Receptor PAM Activity and Excellent Pharmacokinetic Profiles” (Molecules, 2025)
Read-outs that look alike come from different tables or passages of the source.

How the values were obtained:
[1] = target: T1, CYP1A2 (Homo sapiens, UniProt P05177); experiment: Human liver CYP inhibition assay (cocktail, pooled HLM); format: in vitro ADME
T1 construct: tissue XenoTech; host or cells: pooled human liver microsomes
T1 sequence (P05177 1-516): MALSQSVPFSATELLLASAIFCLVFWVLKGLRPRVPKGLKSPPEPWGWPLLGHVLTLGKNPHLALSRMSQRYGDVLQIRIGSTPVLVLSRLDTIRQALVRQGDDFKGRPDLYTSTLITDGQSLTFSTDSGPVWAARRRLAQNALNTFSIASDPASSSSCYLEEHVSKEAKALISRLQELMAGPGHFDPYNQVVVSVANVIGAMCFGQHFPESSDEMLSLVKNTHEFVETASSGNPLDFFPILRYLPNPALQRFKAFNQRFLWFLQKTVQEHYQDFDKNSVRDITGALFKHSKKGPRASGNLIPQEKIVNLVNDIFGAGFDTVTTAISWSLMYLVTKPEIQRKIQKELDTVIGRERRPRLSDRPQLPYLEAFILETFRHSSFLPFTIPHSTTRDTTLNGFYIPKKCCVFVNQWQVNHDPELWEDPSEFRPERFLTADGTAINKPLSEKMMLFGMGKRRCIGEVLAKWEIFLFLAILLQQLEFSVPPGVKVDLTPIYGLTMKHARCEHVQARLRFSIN
Method: (§1) The main materials used in this experiment were sourced as follows: Zuranolone from BEIWANTABIO Co., Ltd. (Shanghai, China); liver microsomes (rat and human) and CYP isoenzymes (CYP1A2, CYP2C8, CYP2D6, CYP3A4) from XenoTech (Tewksbury, MA, USA); LTK cells from the China Center for Type Culture Collection (CCTCC, Wuhan, China); and CHO cells from the National Certified Cell Bank (Shanghai, China).
(§2) The IC50 values of S9 and Zuranolone on CYP isoenzymes (1A2, 2C8, 2D6, 3A4) were determined in pooled HLM using a cocktail approach, as previously reported.

[2] = target: T2, CYP2C8 (Homo sapiens, UniProt P10632); experiment: as above; format: in vitro ADME
T2 construct: tissue XenoTech; host or cells: pooled human liver microsomes
T2 sequence (P10632 1-490): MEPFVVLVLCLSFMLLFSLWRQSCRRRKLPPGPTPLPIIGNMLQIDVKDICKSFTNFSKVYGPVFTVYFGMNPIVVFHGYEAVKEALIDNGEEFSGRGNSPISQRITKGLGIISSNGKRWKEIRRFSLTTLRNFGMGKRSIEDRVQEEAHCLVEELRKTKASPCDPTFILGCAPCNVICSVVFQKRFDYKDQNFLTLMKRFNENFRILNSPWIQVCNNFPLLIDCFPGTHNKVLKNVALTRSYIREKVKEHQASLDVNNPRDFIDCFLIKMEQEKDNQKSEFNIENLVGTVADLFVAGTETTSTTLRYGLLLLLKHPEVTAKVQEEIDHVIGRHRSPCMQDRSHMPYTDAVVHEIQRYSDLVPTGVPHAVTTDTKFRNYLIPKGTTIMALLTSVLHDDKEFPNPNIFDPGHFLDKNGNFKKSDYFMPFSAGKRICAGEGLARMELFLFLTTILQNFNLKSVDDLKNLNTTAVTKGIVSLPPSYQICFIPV
Method: as §1, §2

[3] = target: T3, CYP2D6 (Homo sapiens, UniProt P10635); experiment: as above; format: in vitro ADME
T3 construct: tissue XenoTech; host or cells: pooled human liver microsomes
T3 sequence (P10635 whole entry): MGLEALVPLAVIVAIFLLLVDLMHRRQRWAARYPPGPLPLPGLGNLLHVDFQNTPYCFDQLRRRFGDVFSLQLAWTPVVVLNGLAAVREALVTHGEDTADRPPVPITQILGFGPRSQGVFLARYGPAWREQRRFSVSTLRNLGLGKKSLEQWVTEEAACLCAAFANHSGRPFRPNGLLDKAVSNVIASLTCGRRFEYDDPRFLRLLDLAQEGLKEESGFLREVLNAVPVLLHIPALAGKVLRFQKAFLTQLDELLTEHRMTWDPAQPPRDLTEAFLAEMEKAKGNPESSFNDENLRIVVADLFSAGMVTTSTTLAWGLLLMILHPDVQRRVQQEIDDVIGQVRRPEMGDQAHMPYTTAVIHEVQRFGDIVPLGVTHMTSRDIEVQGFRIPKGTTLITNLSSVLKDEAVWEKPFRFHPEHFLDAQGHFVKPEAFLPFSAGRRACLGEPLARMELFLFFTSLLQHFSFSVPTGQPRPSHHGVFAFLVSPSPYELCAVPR
Method: as §1, §2

[4] = target: T4, CYP3A4 (Homo sapiens, UniProt P08684); experiment: as above; format: in vitro ADME
T4 construct: tissue XenoTech; host or cells: pooled human liver microsomes
T4 sequence (P08684 whole entry): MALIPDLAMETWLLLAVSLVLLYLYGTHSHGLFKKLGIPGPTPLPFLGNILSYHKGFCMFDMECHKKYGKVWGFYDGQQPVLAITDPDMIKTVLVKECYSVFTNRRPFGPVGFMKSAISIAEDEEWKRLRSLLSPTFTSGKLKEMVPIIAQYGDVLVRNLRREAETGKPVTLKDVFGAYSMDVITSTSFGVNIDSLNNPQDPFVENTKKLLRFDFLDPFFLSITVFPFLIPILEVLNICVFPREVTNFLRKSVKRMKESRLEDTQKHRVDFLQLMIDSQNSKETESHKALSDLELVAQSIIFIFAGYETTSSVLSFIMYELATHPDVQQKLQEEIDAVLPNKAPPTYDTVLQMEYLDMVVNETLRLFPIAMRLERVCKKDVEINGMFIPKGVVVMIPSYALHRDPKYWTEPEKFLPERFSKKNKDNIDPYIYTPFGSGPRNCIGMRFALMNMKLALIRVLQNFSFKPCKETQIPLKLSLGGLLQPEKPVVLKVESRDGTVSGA
Method: as §1, §2

[5] = target: T5, α1β2γ2 GABAA receptor (Homo sapiens, UniProt P14867+P47870); experiment: Whole-cell electrophysiology of GABA-evoked currents, LTK cells; format: cell-based; conditions: for Emax: current induced by 1 μmol/L GABA = 100%
T5 construct: expressed in transfected cells
T5 sequence (P14867 28-456): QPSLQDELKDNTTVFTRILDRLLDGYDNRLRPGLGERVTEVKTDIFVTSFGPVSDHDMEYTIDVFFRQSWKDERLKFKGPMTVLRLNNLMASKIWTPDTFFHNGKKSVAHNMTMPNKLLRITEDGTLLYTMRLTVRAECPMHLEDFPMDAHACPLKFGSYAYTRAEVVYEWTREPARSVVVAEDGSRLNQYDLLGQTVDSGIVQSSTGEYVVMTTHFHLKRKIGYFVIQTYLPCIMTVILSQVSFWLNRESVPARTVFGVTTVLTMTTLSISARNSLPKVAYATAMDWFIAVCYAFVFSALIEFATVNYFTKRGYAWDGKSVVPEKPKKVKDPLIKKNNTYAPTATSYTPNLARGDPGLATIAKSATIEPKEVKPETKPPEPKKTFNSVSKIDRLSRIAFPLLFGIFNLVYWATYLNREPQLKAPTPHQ
T5 sequence (P47870 25-512 limits assumed): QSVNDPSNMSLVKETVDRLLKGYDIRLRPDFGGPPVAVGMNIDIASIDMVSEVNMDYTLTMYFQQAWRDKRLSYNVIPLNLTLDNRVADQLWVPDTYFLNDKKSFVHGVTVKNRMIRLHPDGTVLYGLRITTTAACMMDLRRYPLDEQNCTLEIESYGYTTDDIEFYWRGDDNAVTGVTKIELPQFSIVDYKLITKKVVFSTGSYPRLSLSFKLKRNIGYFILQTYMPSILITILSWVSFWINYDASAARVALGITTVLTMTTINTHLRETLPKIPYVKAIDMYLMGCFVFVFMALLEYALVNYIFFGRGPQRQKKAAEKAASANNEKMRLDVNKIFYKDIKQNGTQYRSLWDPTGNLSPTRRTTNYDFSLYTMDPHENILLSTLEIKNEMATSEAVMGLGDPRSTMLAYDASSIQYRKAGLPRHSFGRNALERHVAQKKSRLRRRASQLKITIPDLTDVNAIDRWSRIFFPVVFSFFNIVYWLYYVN
T5 sequence (P18507 40-475 partner): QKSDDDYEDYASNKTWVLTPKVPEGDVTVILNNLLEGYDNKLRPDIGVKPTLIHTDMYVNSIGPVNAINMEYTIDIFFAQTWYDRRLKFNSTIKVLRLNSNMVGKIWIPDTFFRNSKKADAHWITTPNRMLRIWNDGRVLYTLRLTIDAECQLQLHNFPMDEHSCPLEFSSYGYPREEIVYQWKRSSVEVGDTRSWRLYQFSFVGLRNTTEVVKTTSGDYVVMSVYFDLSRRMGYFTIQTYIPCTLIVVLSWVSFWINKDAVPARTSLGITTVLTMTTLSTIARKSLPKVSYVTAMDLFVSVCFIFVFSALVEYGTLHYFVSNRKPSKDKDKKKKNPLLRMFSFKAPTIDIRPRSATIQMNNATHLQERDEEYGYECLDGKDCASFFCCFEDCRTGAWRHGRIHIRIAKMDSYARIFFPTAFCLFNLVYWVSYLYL
Method: The α1β2γ2 and α4β3δ GABAA receptor subtypes, representing synaptic and extrasynaptic subunit compositions in neurons, are widely utilized for screening new NAS drugs. In this study, a preliminary SAR study was conducted on a series of Zuranolone analogs using the LogP values predicted by ADMETlab3.0 software, recombinant human GABAA receptor cell lines, and in vitro liver microsome stability assays. The results are summarized in Table 1, Table 2, and Table 3, respectively.
The effects of Zuranolone and synthetic analogs on GABA-evoked currents were assessed in LTK cells stably expressing α1β2γ2 GABAA receptor subunits (n = 3) or CHO cells transiently expressing α4β3δ receptors (n = 3). Whole-cell mode recordings were conducted using the HEKA EPC-10 amplifier and analyzed with PatchMaster software (version 2x90, HEKA Elektronik, Lambrecht, Germany). High-throughput whole-cell recordings were performed using the Q-Patch method from Sophion. Test substances were dissolved in DMSO (dimethyl sulfoxide) to prepare 10 mmol/L stock solutions, then diluted with perfusion bath solution to concentrations ranging from 0.01 to 10 μmol/L. In this experiment, the effects of Zuranolone and its synthetic analogs on GABA-induced currents were examined in the presence of a submaximal agonist concentration at 1 μmol/L GABA (EC20). Cells were pre-incubated with increasing doses of test substances for 30 s, followed by 2 s of GABA stimulation, and currents were recorded. The maximum efficacy (Emax) of the GABAA receptor is expressed with the current induced by 1 μmol/L GABA taken as 100%, and the percentage after treatment with the test compound is calculated. The EC50 values are determined by fitting the three concentration–response curves recorded from three cells.

| SMILES | IC50 ([1]; human liver CYP isoenzymes, pooled HLM, read-out: CYP IC50: 1A2) [µM] | IC50 ([2]; human liver CYP isoenzymes, pooled HLM, read-out: CYP IC50: 2C8) [µM] | IC50 ([3]; human liver CYP isoenzymes, pooled HLM, read-out: CYP IC50: 2D6) [µM] | IC50 ([4]; human liver CYP isoenzymes, pooled HLM, read-out: CYP IC50: 3A4) [µM] | EC50 ([5]; LTK cells, 1 μmol/L GABA (EC20), n = 3, read-out: α1β2γ2 EC50) [µM] | Emax ([5]; LTK cells, n = 3) [%] | enhanced GABAA receptor potency compared to S28 ([5]; S28 previously reported ref 25) | efficacy as % of that of Zuranolone ([5]; synaptic GABAA receptors) [%] | potency as % of that of Zuranolone ([5]; synaptic GABAA receptors) [%] | efficacy as % of that of Zuranolone ([5]; synaptic and extrasynaptic GABAA receptors, not separated) | IC50 [1] [µM] | IC50 [2] [µM] | IC50 [3] [µM] | IC50 [4] [µM] | EC50 [5] [µM] |
| --- | --- | --- | --- | --- | --- | --- | --- | --- | --- | --- | --- | --- | --- | --- | --- |
| C[C@@]1(O)CC[C@H]2[C@H](CC[C@@H]3[C@@H]2CC[C@]2(C)[C@@H](C(=O)Cn4cnn(-c5ccnc(OCC(F)(F)F)c5)c4=O)CC[C@@H]32)C1 [S9] | > 30 | > 30 | > 30 | > 30 | 0.05 ± 0.01 | 675 ± 163 | over 1 fold | 76 | 250 | approximately 75% |  |  |  |  |  |
| C[C@@]1(O)CC[C@H]2[C@H](CC[C@@H]3[C@@H]2CC[C@]2(C)[C@@H](C(=O)Cn4cc(C#N)cn4)CC[C@@H]32)C1 [Zuranolone] |  |  |  |  |  | 894 ± 40 |  |  |  |  | > 30 | > 30 | > 30 | > 30 | 0.123 ± 0.02 |
